Three molecules from US20120156699A1, “Pathogenic TH17 Cells; related reagents and methods” (Schering Corporation, priority 2007, published 2012) can be followed below.

In one assay the test system is IL-23R. Nature of the assay: IL-23R expression in naïve human CD4+ T cells, flow cytometry. It is filed as cell-based. The settings on record: 10 μM PGE2, 10 μM butaprost, 35 μM misoprostol, 10 μM sulprostone; restimulated 48 hours; FIGS. 4A, 4B. On the procedure: FIGS. 4A and 4B present results obtained in experiments in which naïve human CD4^+ T cells are activated with T cell activation beads and cultured in the presence or absence of PGE2 or specific EP receptors agonists.
(§1) Methods used in this example are generally as described at Wilson et al. (2007) Nature Immunology 8:950. More specifically, cell culture is performed as follows. Naïve CD4^+ CD45RO^− T cells are isolated and cultured as described previously (Wilson et al. (2007), supra). Memory CD4^+ CD45RA^− T cells are isolated using the memory T cell isolation kit, human (Miltenyi, Auburn, Calif.), according to the manufacturer's instructions. Where indicated, 50 ng/ml hIL-23, 50 ng/ml hIL-1β (R&D Systems, Minneapolis, Minn.), 10 μM PGE2 (Sigma, St. Louis, Mo.), 10 μM butaprost (EP2 selective agonist), 35 μM misoprostol (EP4, EP3>EP1>EP2 agonist), and/or 10 μM sulprostone (EP1, EP3 agonist, Cayman Chemical, Ann Arbor, Mich.) are added.
For analysis of cell surface proteins, cells are stained with anti-CD4, anti-CD3, anti-CD45RA, anti-CCR6 (BD Biosciences), and/or anti-IL-23R (R&D Systems) antibodies. Data are acquired on a LSR II cytometer and analyzed with FlowJo software (Tree Star, Ashland, Oreg.).
Further experiments are performed to determine the effect of PGE2, or agonists thereof, on the expression of IL-23R in naïve human CD4^+ T cells in culture. […]

The next assay concerns naïve human CD4+ T cells. Nature of the assay: Cytokine expression by naïve human CD4+ T cells cultured with IL-1β and IL-23, with or without PGE2 or EP receptor agonists. It is filed as cell-based. The settings on record: together with IL-1β and IL-23. How it is done:
FIGS. 5A, 5B and 5C present results obtained in naïve human CD4^+ T cells activated with T cell activation beads and cultured in the presence or absence of IL-23 and IL-1β, with or without PGE2 or the EP receptors agonists butaprost, misoprostol, and sulprostone. Data in FIGS. 5A-5C reflect IL-17A, IFN-γ and IL-10 production in cell-free supernatants of T cells restimulated for 48 hours, respectively. Results in each figure are representative of two independent experiments.
as §1
ELISA and electrochemiluminescence assays are performed as described previously (Wilson et al. (2007), supra). IL-10 ELISA is performed using a kit from R&D Systems. […]

The next assay relates to IL-1R1. Nature of the assay: IL-1R1 gene expression in response to PGE2. The class given is cell-based, human. The settings on record: data not shown. How it is done: (§2) Real-time quantitative PCR is performed as described previously (Wilson et al. (2007), supra).
Further experiments are performed to determine the effect of PGE2, or agonists thereof, on the expression of IL-23R in naïve human CD4^+ T cells in culture. […] In addition, IL-1R1 gene expression is increased in response to PGE2 (data not shown).

The test system of the next assay is CCR6. The experiment in a line: CCR6 expression in naïve human CD4+ T cells, flow cytometry. It is filed as cell-based. The settings on record: PGE2 added to IL-1β and IL-23; FIG. 6A. On the procedure:
FIGS. 6A, 6B and 6C present results obtained with naïve human CD4^+ T cells cultured as described with reference to FIGS. 5A-5C. […] Results represent mean±s.e.m. of nine independent experiments. For data presented in FIGS. 6B and 6C, naïve T cells are cultured in the presence of IL-1β, IL-23, and PGE2. After reactivation, CD4^+ CCR6^+ and CD4^+CCR6^− T cells are sorted and cultured for seven days in the presence of IL-2. […] Results in each of FIGS. 6B and 6C reflect the results of four independent experiments.
Methods used in this example are generally as described at Wilson et al. (2007) Nature Immunology 8:950. More specifically, cell culture is performed as follows. Naïve CD4^+ CD45RO^− T cells are isolated and cultured as described previously (Wilson et al. (2007), supra). Memory CD4^+ CD45RA^− T cells are isolated using the memory T cell isolation kit, human (Miltenyi, Auburn, Calif.), according to the manufacturer's instructions. […]
For analysis of cell surface proteins, cells are stained with anti-CD4, anti-CD3, anti-CD45RA, anti-CCR6 (BD Biosciences), and/or anti-IL-23R (R&D Systems) antibodies. Data are acquired on a LSR II cytometer and analyzed with FlowJo software (Tree Star, Ashland, Oreg.). […]
In general terms: Flow cytometry measures light scatter and fluorescence of single cells or particles in a stream.

In assay [1] the test system is human memory CD4+ T cells. The experiment in a line: Cytokine production and gene expression in activated human memory CD4+ T cells. It is filed as cell-based. How it is done: FIGS. 7A and 7B present results obtained with human memory CD4^+ T cells activated and cultured for three days in the presence of IL-23, IL-1β, and/or PGE2. […] Results from nine independent donors are shown. […] Results from four different donors are shown. Horizontal lines represent medians.
as §1
ELISA and electrochemiluminescence assays are performed as described previously (Wilson et al. (2007), supra). IL-10 ELISA is performed using a kit from R&D Systems.
as §2
Intervention with therapeutic agents, such as antagonists of the inflammatory cytokines and non-cytokine immunomodulators, might therefore be expected to be beneficial when administered both systemically and also when administered locally at (or near) the site of inflammation.

The subject of the next assay is CD161+ Thmem cells. The experiment in a line: IL-17 production by lamina propria CD161+ Thmem cells cultured with IL-23. It is filed as cell-based, human. The settings on record: CD161+ Thmem cells cultured in the presence of IL-23. How it is done: (§3) Colon and peripheral blood (PB) samples are obtained from Crohn's Disease patients. Lamina propria mononuclear cells (LPMC) are prepared from colon samples by dissociation of the epithelial layer of the mucosa, collagenase digestion of the lamina propria, and density gradient centrifugation. Peripheral blood mononuclear cells (PBMC) are isolated from PB by density gradient centrifugation and lysis of red blood cells.
Colon samples from CD patients contain approximately 20-fold more CD161^+ CD4^+ memory T cells, as determined by flow cytometry, than colon samples from normal subjects. FACS® flow cytometry purified lamina propria CD161^+ Thmem cells are found to produce 4 to 6-fold more IL-17 than CD161^− Thmem cells (as measured by ELISA) in both CD and normal samples.

A further assay deals with PBMC CD161+ Thmem cells. Nature of the assay: IL-17 production by PBMC CD161+ Thmem cells from CD patients cultured with IL-23. The class given is cell-based, human. How it is done:
as §3
This Th17 phenotype is increased in Crohn's disease patients.

Setting [2] is: memory T cells cultured three days, FIG. 7A.

For the molecule `CCCC1([C@H](O)C/C=C/[C@H]2[C@H](O)CC(=O)[C@@H]2CCCCCCC(=O)OC)CCC1` [butaprost], the “percentage of IL-23R expressing CD4+ T cells” value in the assay on IL-23R is on record as “more than doubles”. For the same molecule, the IL-17 expression entry with naïve human CD4+ T cells (FIG. 5A) was “somewhat greater increase in IL-17 expression than misoprostol”.
For the molecule `CCCCC[C@H](O)/C=C/[C@H]1[C@H](O)CC(=O)[C@@H]1C/C=C\CCCC(=O)O` [PGE2, prostaglandin E2], in the assay with IL-23R, the “percentage of IL-23R expressing CD4+ T cells” value is given as “more than doubles”. In addition, the IL-1R1 gene expression entry in the assay with IL-1R1 is given as “increased”. Also, the IL-10 expression entry in the assay with naïve human CD4+ T cells (FIG. 5C) is recorded as “Downregulation”. Further, in the assay with CCR6, the “percentage of naïve human CD4+ T cells expressing CCR6” value is “increase in the percentage”. Besides, in assay [1] (setting [2]), the IFN-γ levels entry is listed as “does not promote increased levels”, the IL-10 levels result is recorded as “does not promote increased levels” and the IL-17A levels result is listed as “promotes increased levels”. Moreover, in assay [1] (real-time RT-PCR, FIG. 7B), the ROR-γt expression entry is “promotes increased levels of the IL-17A and expression of ROR-γt”.

B1: IL-23: protein consisting of two polypeptide subunits, p19 and p40 (protein, UniProt Q9NPF7 20-189; P29460 23-328, looked up)
Interleukin-23 subunit alpha: RAVPGGSSPAWTQCQQLSQKLCTLAWSAHPLVGHMDLREEGDEETTNDVPHIQCGDGCDPQGLRDNSQFCLQRIHQGLIFYEKLLGSDIFTGEPSLLPDSPVGQLHASLLGLSQLLQPEGHHWETQQIPSLSPSQPWQRLLLRFKILRSLQAFVAVAARVFAHGAATLSP
Interleukin-12 subunit beta: IWELKKDVYVVELDWYPDAPGEMVVLTCDTPEEDGITWTLDQSSEVLGSGKTLTIQVKEFGDAGQYTCHKGGEVLSHSLLLLHKKEDGIWSTDILKDQKEPKNKTFLRCEAKNYSGRFTCWWLTTISTDLTFSVKSSRGSSDPQGVTCGAATLSAERVRGDNKEYEYSVECQEDSACPAAEESLPIEVMVDAVHKLKYENYTSSFFIRDIIKPDPPKNLQLKPLKNSRQVEVSWEYPDTWSTPHSYFSLTFCVQVQGKSKREKKDRVFTDKTSATVICRKNASISVRAQDRYYSSSWSEWASVPCS
For B1, in the assay on CD161+ Thmem cells, the “enhancement of IL-17 production” value is on record as “approximately 3 fold”. Besides, in the assay on PBMC CD161+ Thmem cells, the IL-17 production entry is “increased IL-17 production”.
